Test results from ChEMBL document CHEMBL1201862, “PubChem BioAssay data set” (2004).
The source made the active and inactive calls.

Assays:
[1] = target: T1, NADPH oxidase 1 (Homo sapiens, UniProt Q9Y5S8); assay type: functional, cell-based;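 also: Cell-based assay with luminescence read-out, IC50 derived from inhibitor dose-response curves; intracellular ROS from endogenous NOX1 in intact HT29 colon cancer cells; potency of inhibitors that lower the ROS luminescence signal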
T1 sequence (Q9Y5S8 whole entry): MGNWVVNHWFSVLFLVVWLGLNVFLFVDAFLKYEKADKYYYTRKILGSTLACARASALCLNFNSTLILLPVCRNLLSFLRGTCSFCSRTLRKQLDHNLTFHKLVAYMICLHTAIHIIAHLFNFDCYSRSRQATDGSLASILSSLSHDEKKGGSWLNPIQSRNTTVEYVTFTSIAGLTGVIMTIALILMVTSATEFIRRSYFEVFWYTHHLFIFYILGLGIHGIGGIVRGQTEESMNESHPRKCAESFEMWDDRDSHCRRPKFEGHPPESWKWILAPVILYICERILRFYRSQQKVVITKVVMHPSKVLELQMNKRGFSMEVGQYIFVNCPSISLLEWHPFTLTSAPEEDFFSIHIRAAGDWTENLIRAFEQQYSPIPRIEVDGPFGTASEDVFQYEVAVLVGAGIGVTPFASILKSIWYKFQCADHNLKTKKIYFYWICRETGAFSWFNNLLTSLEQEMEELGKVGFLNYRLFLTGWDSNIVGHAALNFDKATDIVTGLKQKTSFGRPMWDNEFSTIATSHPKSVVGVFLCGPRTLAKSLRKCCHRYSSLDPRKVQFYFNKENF

[2] = target: Major prion protein (Homo sapiens, UniProt P04156); assay type: functional, cell-based
[3] = Luminescence-based dose response cell-based high throughput screening assay for cytotoxic compounds using the IEC-6 intestinal epithelial cell line. [Related pubchem assays: 1858 (Summary AID.), 1825 (Counterscreen.), 1907 (Confirmation screen.)]; assay type: functional
[4] = inhibitors of SNCA 5'UTR-driven reporter translation, confirmation, H4 neuroglioma cells, luminescence (AID 1988); assay type: functional, cell-based
[5] = system: BJ; assay: cytotoxicity toward BJ-TERT-LT-ST fibroblasts, dose response, cell-based, RAS-independent, luminescence (AID 1935); assay type: functional, Homo sapiens; conditions: Homo sapiens, BJ;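 also: BJ fibroblasts immortalized with TERT plus LT and ST oncogenes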
[6] = target: T2, High affinity choline transporter 1 (Homo sapiens, UniProt Q9GZV3); assay: CHT inhibitors, dose response, cell-based, 10-point CRC, membrane potential dye (AID 588401); assay type: functional;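 also: membrane potential dye fluorescence of choline-evoked depolarization via CHT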
T2 sequence (Q9GZV3 whole entry): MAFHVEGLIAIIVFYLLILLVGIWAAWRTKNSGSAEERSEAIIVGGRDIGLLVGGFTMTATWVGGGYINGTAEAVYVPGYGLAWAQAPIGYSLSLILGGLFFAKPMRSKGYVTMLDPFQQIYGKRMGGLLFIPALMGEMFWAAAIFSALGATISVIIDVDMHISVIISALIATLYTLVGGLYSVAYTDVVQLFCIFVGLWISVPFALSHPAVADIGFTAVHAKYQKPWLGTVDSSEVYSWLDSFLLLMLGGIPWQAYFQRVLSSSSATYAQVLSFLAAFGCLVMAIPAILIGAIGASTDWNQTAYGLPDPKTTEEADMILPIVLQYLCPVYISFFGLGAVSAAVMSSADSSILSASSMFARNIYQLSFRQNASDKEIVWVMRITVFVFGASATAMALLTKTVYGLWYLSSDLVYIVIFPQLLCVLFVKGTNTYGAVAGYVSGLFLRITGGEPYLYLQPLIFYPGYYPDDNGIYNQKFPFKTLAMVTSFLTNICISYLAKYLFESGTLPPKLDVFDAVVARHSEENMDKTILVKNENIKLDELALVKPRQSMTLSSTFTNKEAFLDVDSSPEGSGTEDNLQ

[7] = target: Paired box protein Pax-8 (Homo sapiens, UniProt Q06710); assay: inhibitors of PAX8-driven TPO luciferase reporter, dose response, RMG-I cells, cherry-pick (AID 687027); assay type: functional, cell-based;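 also: luciferase reporter driven by Pax8 target thyroperoxidase promoter measured by SteadyGlo luminescence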
[8] = target: Galanin receptor type 2 (Homo sapiens, UniProt O43603); assay: Dose Response cell-based high-throughput screening assay to identify antagonists of galanin receptor 2 (GALR2). [Related pubchem assays: 828, 866 ]; assay type: functional
[9] = cells; assay type: functional, cell-based
[10] = Luminescence Cell-Based Dose Response HTS to Identify Inhibitors of 5'UTR Stem-Loop Driven Prion Protein mRNA Translation in H4 Neuroglioblastoma Cells. [Related pubchem assays: 1827 (Project Summary), 1813 (Primary HTS)]; assay type: functional
[11] = inhibitors of SNCA 5'UTR-driven translation, confirmation, luminescence, H4 neuroglioblastoma cells, dose confirmation (AID 2454); assay type: functional, cell-based;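 also: H4 neuroglioblastoma cells carrying an alpha-synuclein 5'UTR luciferase reporter; potency for inhibition of the luciferase signal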
[12] = cytotoxicity in HEK-293T cells, dose response, cytotoxicity control for BCR NF-kB inhibitor project, luminescence, B-cell screen hits (AID 489021); assay type: functional, cell-based;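 also: HEK-293T cells carrying an NF-kB luciferase reporter; cells exposed to compound for about 14 hours before viability readout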
[13] = system: INS1; assay: beta cell apoptosis inhibitors, cytokine rescue, dose response, luminescence, retest (AID 449756); assay type: functional, cell-based; conditions: Rattus norvegicus;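 also: cell death triggered by IL-1 beta plus TNF-alpha plus IFN-gamma mixture; protective hits raise ATP signal compared with cytokine alone wells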
[14] = target: T2, High affinity choline transporter 1; assay: CHT inhibitors, dose response, cell-based, 5-point CRC, membrane potential dye (AID 504840); assay type: functional
[15] = luciferase reporter signal reduction – luminescence, H4-C neuroglioblastoma cells, dose response (AID 2458); assay type: functional, cell-based;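 also: H4 neuroglioblastoma cells stably carrying a luciferase reporter gene fusion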
[16] = cells
[17] = target: Photoreceptor-specific nuclear receptor (Homo sapiens, UniProt Q9Y5X4); assay type: functional, cell-based;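 also: CHO-S cells with Gal4-NCOR and VP16-NR2E3 two-hybrid luciferase reporter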
[18] = inhibitors of firefly luciferase expression or activity, dose response, H4 neuroglioma cells, luminescence (AID 1990); assay type: functional, cell-based
[19] = system: BJ; assay: cells; assay type: functional, cell-based, Homo sapiens; conditions: Homo sapiens, BJ

| SMILES | IC50 [1] | IC50 [2] | IC50 [3] | EC50 [4] | EC50 [5] | IC50 [6] | AC50 [7] | IC50 [8] | EC50 [9] | EC50 [10] | EC50 [11] | IC50 [12] | AC50 [13] | IC50 [14] | EC50 [15] | IC50 [16] | IC50 [17] | EC50 [18] | EC50 [19] |
| --- | --- | --- | --- | --- | --- | --- | --- | --- | --- | --- | --- | --- | --- | --- | --- | --- | --- | --- | --- |
| COc1ccccc1OC(=O)c1cc2ccccc2s1 | > 17000 nM (not active) | – | – | – | – | – | – | – | – | – | – | – | – | – | – | – | – | – | – |
| CC1CCC/C=C/C2CC(O)CC2C(O)/C=C/C(=O)O1 (centres undefined) | – | 3430 nM (active) | 353 nM (active) | < 100 nM (active) | < 120 nM (active) | 3030 nM (active) | < 260 nM (active) | > 42000 nM (not active) | 78 nM (active) | < 100 nM (active) | 71 nM (active) | > 80000 nM (inactive) | 740 nM (active) | 1870 nM (active) | 78 nM (active) | > 138000 nM (inactive) | 714 nM (active) | < 100 nM (active) | > 150000 nM (inconclusive) |
